In patent US9828368B2 (MERCK SHARP & DOHME CORP., priority 2013, dated 2017):
Like-named read-outs stand apart in the source and are kept apart here.

Assays:
human orexin-2 receptor = human orexin-2 receptor (Homo sapiens (Human), UniProt O43614); test: FLIPR Ca2+ flux assay, hOX2R; type: cell-based; details: CHO cells expressing human orexin-2 receptor; agonist 70 pM Ala-6,12 orexin-A
Method: In a typical experiment the OX1 and OX2 receptor antagonistic activity of the compounds of the present invention was determined in accordance with the following experimental method. For intracellular calcium measurements, Chinese hamster ovary (CHO) cells expressing the rat orexin-1 receptor or the human orexin-2 receptor, are grown in Iscove's modified DMEM containing 2 mM L-glutamine, […], 1% hypoxanthine-thymidine supplement, 100 U/ml penicillin, 100 μg/ml streptomycin and 10% heat-inactivated fetal calf serum (FCS). The cells are seeded at 20,000 cells/well into Becton-Dickinson black 384-well clear bottom sterile plates coated with poly-D-lysine. All reagents were from GIBCO-Invitrogen Corp. The seeded plates are incubated overnight at 37° C. and 5% CO2. Ala-6,12 human orexin-A as the agonist is prepared as a 1 mM stock solution in 1% bovine serum albumin (BSA) and diluted in assay buffer (HBSS containing 20 mM HEPES, 0.1% BSA and 2.5 mM probenecid, pH7.4) for use in the assay at a final concentration of 70 pM. Test compounds are prepared as 10 mM stock solution in DMSO, then diluted in 384-well plates, first in DMSO, then assay buffer. On the day of the assay, cells are washed 3 times with 100 μl assay buffer and then incubated for 60 min (37° C., 5% CO2) in 60 μl assay buffer containing 1 μM Fluo-4AM ester, 0.02% pluronic acid, and 1% BSA. The dye loading solution is then aspirated and cells are washed 3 times with 100 μl assay buffer. 30 μl of that same buffer is left in each well. Within the Fluorescent Imaging Plate Reader (FLIPR, Molecular Devices), test compounds are added to the plate in a volume of 25 μl, incubated for 5 min and finally 25 μl of agonist is added. Fluorescence is measured for each well at 1 second intervals for 5 minutes and the height of each fluorescence peak is compared to the height of the fluorescence peak induced by 70 pM Ala-6,12 orexin-A with buffer in place of antagonist. […] The intrinsic orexin receptor antagonist activity of a compound which may be used in the present invention may be determined by these assays.

hOX1R = hOX1R (Homo sapiens, UniProt O43613); test: FLIPR Ca2+ flux assay, hOX1R; type: cell-based
[1] = CHO cells, agonist 70 pM Ala-6,12 orexin-A, rat orexin-1 receptor, read-out: hOX1R FLIPR IC50

human orexin-2 receptor, sequence (O43614 whole entry): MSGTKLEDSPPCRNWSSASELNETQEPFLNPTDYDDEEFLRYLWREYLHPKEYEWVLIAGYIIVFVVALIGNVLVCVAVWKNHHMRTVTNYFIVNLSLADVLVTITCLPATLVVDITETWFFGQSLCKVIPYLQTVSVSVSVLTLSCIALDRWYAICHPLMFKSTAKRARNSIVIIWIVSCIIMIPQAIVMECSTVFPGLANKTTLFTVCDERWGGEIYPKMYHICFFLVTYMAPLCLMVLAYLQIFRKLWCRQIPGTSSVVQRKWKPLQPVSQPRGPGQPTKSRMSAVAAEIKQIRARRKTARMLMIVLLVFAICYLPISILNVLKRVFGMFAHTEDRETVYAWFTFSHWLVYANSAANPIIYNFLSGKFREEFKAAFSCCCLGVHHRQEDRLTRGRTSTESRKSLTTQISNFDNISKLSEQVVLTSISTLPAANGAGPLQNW

Compound | IC50 (human orexin-2 receptor) [nM] | IC50 (hOX1R; [1]) [nM] | IC50 (hOX1R) [nM]
CC(O)c1nc([C@@H]2CC[C@@H](C)N(C(=O)c3ccccc3-n3nccn3)C2)oc1-c1ccccc1 (single isomer, unassigned) [Example 64] | 76 | 136 | 
CC(O)c1nc([C@@H]2CC[C@@H](C)N(C(=O)c3ccccc3-n3nccn3)C2)oc1-c1ccccc1 (single isomer, unassigned) [Example 65] | 130 | 155 | 
CCC(C)(O)c1nc([C@@H]2CC[C@@H](C)N(C(=O)c3ccsc3-n3nccn3)C2)oc1C (stereo in doubt) [Example 48, (2-(2H-1,2,3-Triazol-2-yl)thiophen-3-yl)((2R,5R)-5-(4-((S)-2-hydroxybutan-2-yl)-5-methyloxazol-2-yl)-2-methylpiperidin-1-yl)methanone] |  | 1810 | 
C[C@@H]1CC[C@@H](c2nc(Br)co2)CN1C(=O)c1ccccc1-n1nccn1 [Example 1, (2-(2H-1,2,3-Triazol-2-yl)phenyl)((2R,5R)-5-(4-bromooxazol-2-yl)-2-methylpiperidin-1-yl)methanone] | 138 |  | ~7900
COC(=O)C1CC1c1coc([C@@H]2CC[C@@H](C)N(C(=O)c3ccccc3-n3nccn3)C2)n1 (stereo partly drawn) [Example 2, Methyl 2-(2-((3R,6R)-1-(2-(2H-1,2,3-triazol-2-yl)benzoyl)-6-methylpiperidin-3-yl)oxazol-4-yl)cyclopropanecarboxylate] | 49 | 3000 | 
C[C@@H]1CC[C@@H](c2nc(C3CC3)co2)CN1C(=O)c1ccccc1-n1nccn1 [Example 4, (2-(2H-1,2,3-Triazol-2-yl)phenyl)((2R,5R)-5-(4-cyclopropyloxazol-2-yl)-2-methylpiperidin-1-yl)methanone] | 47 | 700 | 
C[C@@H]1CC[C@@H](c2nc(-c3ccccc3CO)co2)CN1C(=O)c1ccccc1-n1nccn1 [Example 5, (2-(2H-1,2,3-Triazol-2-yl)phenyl)((2R,5R)-5-(4-(2-(hydroxymethyl)phenyl)oxazol-2-yl)-2-methylpiperidin-l-yl)methanone] | 30 | 46 | 
C[C@@H]1CC[C@@H](c2nc(-c3cccc(F)n3)co2)CN1C(=O)c1ccccc1-n1nccn1 [Example 6, (2-(2H-1,2,3-Triazol-2-yl)phenyl)((2R, 5R)-5-(4-(6-fluoropyridin-2-yl)oxazol-2-yl)-2-methylpiperidin-1-yl)methanone] | 150 | 670 | 
Cc1cccc(-c2coc([C@@H]3CC[C@@H](C)N(C(=O)c4ccccc4-n4nccn4)C3)n2)c1 [Example 7, (2-(2H-1,2,3-Triazol-2-yl)phenyl)((2R,5R)-2-methyl-5-(4-(m-tolyl)oxazol-2-yl)piperidin-1-yl)methanone] | 410 | 260 | 
C[C@@H]1CC[C@@H](c2nc(C(C)(C)O)co2)CN1C(=O)c1ccccc1-n1nccn1 [Example 10, (2-(2H-1,2,3-Triazol-2-yl)phenyl)((2R,5R)-5-(4-(2-hydroxypropan-2-yl)oxazol-2-yl)-2-methylpiperidin-1-yl)methanone] | 59 | 2700 | 
C[C@@H]1CC[C@@H](c2nc(C#N)c(Br)o2)CN1C(=O)c1ccccc1-n1nccn1 [Example 11, 2-((3R,6R)-1-(2-(2H-1,2,3-Triazol-2-yl)benzoyl)-6-methylpiperidin-3-yl)-5-bromooxazole-4-carbonitrile] | 350 | > 10000 | 
COC(=O)c1nc([C@@H]2CC[C@@H](C)N(C(=O)c3ccccc3-n3nccn3)C2)oc1Br [Example 12, Methyl 2-((3R,6R)-1-(2-(2H-1,2,3-Triazol-2-yl)benzoyl)-6-methylpiperidin-3-yl)-5-bromooxazole-4-carboxylate] | 30 | 875 | 
Cc1oc([C@@H]2CC[C@@H](C)N(C(=O)c3ccccc3-n3nccn3)C2)nc1C(C)(C)O [Example 13, (2-(2H-1,2,3-Triazol-2-yl)phenyl)((2R,5R)-5-(4-(2-hydroxypropan-2-yl)-5-methyloxazol-2-yl)-2-methylpiperidin-1-yl)methanone] | 12.8 | 815 | 
C[C@@H]1CC[C@@H](c2nc(C(C)(C)O)c(C3CC3)o2)CN1C(=O)c1ccccc1-n1nccn1 [Example 14, (2-(2H-1,2,3-Triazol-2-yl)phenyl)((2R,5R)-5-(5-cyclopropyl-4-(2-hydroxypropan-2-yl)oxazol-2-yl)-2-methylpiperidin-1-yl)methanone] | 19 | 21 | 
CC(C)c1oc([C@@H]2CC[C@@H](C)N(C(=O)c3ccccc3-n3nccn3)C2)nc1C(C)(C)O [Example 15, (2-(2H-1,2,3-Triazol-2-yl)phenyl)((2R,5R)-5-(4-(2-hydroxypropan-2-yl)-5-isopropyloxazol-2-yl)-2-methylpiperidin-1-yl)methanone] | 17 | 10 | 
C[C@@H]1CC[C@@H](c2nc(C(C)(C)C)co2)CN1C(=O)c1ccccc1-n1nccn1 [Example 16, (2-(2H-1,2,3-Triazol-2-yl)phenyl)((2R,5R)-5-(4-(tert-butyl)oxazol-2-yl)-2-methylpiperidin-1-yl)methanone] | 60 | 290 | 
C[C@@H]1CC[C@@H](c2nc(-c3ccccc3)co2)CN1C(=O)c1ccccc1-n1nccn1 [Example 17, (2-(2H-1,2,3-Triazol-2-yl)phenyl)((2R,5R)-2-methyl-5-(4-phenyloxazol-2-yl)piperidin-1-yl)methanone] | 38 | 120 | 
Cc1oc([C@@H]2CC[C@@H](C)N(C(=O)c3ccccc3-n3nccn3)C2)nc1[C@@H](O)C(F)(F)F [Example 18, (2-(2H-1,2,3-Triazol-2-yl)phenyl)((2R,5R)-2-methyl-5-(5-methyl-4-((R)-2,2,2-trifluoro-1-hydroxyethyl)oxazol-2-yl)piperidin-1-yl)methanone] | 13.9 | 420 | 
Cc1oc([C@@H]2CC[C@@H](C)N(C(=O)c3ccccc3-n3nccn3)C2)nc1[C@H](O)C(F)(F)F [Example 19, (2-(2H-1,2,3-triazol-2-yl)phenyl)((2R,5R)-2-methyl-5-(5-methyl-4-((S)-2,2,2-trifluoro-1-hydroxyethyl)oxazol-2-yl)piperidin-1-yl)methanone] | 24 | 790 | 
COc1ccccc1C(=O)N1C[C@H](c2nc(C(C)(C)O)c(C)o2)CC[C@H]1C [Example 31, ((2R,5R)-5-(4-(2-Hydroxypropan-2-yl)-5-methyloxazol-2-yl)-2-methypiperidin-1-yl)(2-methoxyphenyl)methanone] | 80 |  | 
Cc1oc([C@@H]2CC[C@@H](C)N(C(=O)c3cscc3-c3ncccn3)C2)nc1C(C)(C)O [Example 36] |  | > 10000 | 
CC[C@](C)(O)c1nc([C@@H]2CC[C@@H](C)N(C(=O)c3ccsc3-n3nccn3)C2)oc1C [Example 49, (2-(2H-1,2,3-triazol-2-yl)thiophen-3-yl)((2R,5R)-5-(4-((S)-2-hydroxybutan-2-yl)-5-methyloxazol-2-yl)-2-methylpiperidin-1-yl)methanone] |  | 1740 | 
C[C@@H]1CC[C@@H](c2nc(CN(C)C)c(-c3ccccc3)o2)CN1C(=O)c1ccccc1-n1nccn1 [Example 66, (2-(2H-1,2,3-Triazol-2-yl)phenyl)((2R,5R)-5-(4-((dimethylamino)methyl)-5-phenyloxazol-2-yl)-2-methylpiperidin-1-yl)methanone] | 983 |  | 
COC(=O)Cc1nc([C@@H]2CC[C@@H](C)N(C(=O)c3ccccc3-n3nccn3)C2)oc1-c1ccccc1 [Example 67] |  | 93 | 
